The values that follow come from patent US4442044A, “Process for preparing monoesters and diesters of N-alkyl substituted amino methyl phosphonic acid” (priority 1983, dated 1984).

What all share (assay): post-emergent herbicidal activity, greenhouse
What all share (format): in vivo
Holding throughout (details): Table I

The subject of assay [1] is Canada Thistle. An excerpt: (§1) A good grade of top soil is placed in aluminum pans having holes in the bottom and compacted to a depth of 0.95 to 1.27 cm. from the top of the pan. A predetermined number of seeds of each of several dicotyledonous and monocotyledonous annual plant species and/or vegetative propagules for the perennial plant species were placed on the soil and pressed into the soil surface. The seeds and/or vegetative propagules are covered with soil and leveled. The pans are then placed on a sand bench in the greenhouse and watered from below as needed. After the plants reach the desired age (two to three weeks), each pan except for the control pans is removed individually to a spraying chamber and sprayed by means of an atomizer operating at a positive air pressure of approximately 1.46 kg/cm^2 absolute. The atomizer contains 6 ml. of a solution or suspension of the chemical. In that 6 ml., is an amount of a cyclohexanone emulsifying agent mixture to give a spray solution or suspension which contains about 0.4% by weight of the emulsifier. The spray solution or suspension contains a sufficient amount of the candidate chemical in order to give application rates corresponding to those set forth in the tables. The spray solution is prepared by taking an aliquot of a 1.0% by weight stock solution or suspension of the candidate chemical in an organic solvent such as acetone or tetrahydrofuran or in water. The emulsifying agent employed is a mixture comprising 35 weight percent butylamine dodecylbenzene sulfonate and 65 weight percent of a tall oil ethylene oxide condensate having about 11 moles of ethylene oxide per mole of tall oil. The pans are returned to the greenhouse and watered as before and the injury to the plants as compared to the control is observed at approximately two and four weeks as indicated in the tables under WAT and the results recorded. In some instances, the two-week observations are omitted.
(§2) The post-emergent herbicidal activity index used in Tables I and II is as follows: […]

For assay [2], the system named is Quackgrass.
Source text: as §1, §2

Assay [3] relates to Morningglory.
Source text: as §1, §2

In assay [4] the test system is Velvetleaf.
Source text: as §1, §2

The test system of assay [5] is Cocklebur.
Source text: as §1, §2

Assay [6] has as its system Lambsquarters.
Source text: as §1, §2

Assay [7] deals with Barnyardgrass.
Source text: as §1, §2

In assay [8] the test system is Smartweed.
Source text: as §1, §2

The subject of assay [9] is Yellow Nutsedge.
Source text: as §1, §2

The test system of assay [10] is Downy Brome.
Source text: as §1, §2

Assay [11] relates to Johnsongrass.
Source text: as §1, §2

With `CCOC(=O)CNCP(=O)(OC(C)(C)C#N)OC(C)(C)C#N` [Example 2, glycine, N-[bis(1-cyano-1-methyl-ethoxy)phosphinylmethyl], ethyl ester], the “post-emergent herbicidal activity index” value in assay [1] (4 WAT, 56.0 kg/h) was 4 (100% control); in assay [2] (2 WAT, 5.6 kg/h) it was 0 (0-24% control); in assay [2] (4 WAT, 11.2 kg/h) it was 0 (0-24% control); in assay [2] (4 WAT, 56.0 kg/h) it was 0 (0-24% control); in [3] (2 WAT, 5.6 kg/h) it was 0 (0-24% control); in assay [3] (4 WAT, 11.2 kg/h), 0 (0-24% control). For the same compound, the “post-emergent herbicidal activity index” value in assay [3] (4 WAT, 56.0 kg/h) is reported as 1 (25-49% control); in assay [4] (2 WAT, 5.6 kg/h) it was 0 (0-24% control); in assay [4] (4 WAT, 11.2 kg/h) it was 0 (0-24% control); in assay [4] (4 WAT, 56.0 kg/h), 0 (0-24% control); in [5] (2 WAT, 5.6 kg/h) it was 0 (0-24% control); in assay [5] (4 WAT, 11.2 kg/h), 0 (0-24% control). For the same compound, the “post-emergent herbicidal activity index” value in assay [5] (4 WAT, 56.0 kg/h) is given as 1 (25-49% control); in assay [6] (2 WAT, 5.6 kg/h), 0 (0-24% control); in assay [6] (4 WAT, 11.2 kg/h) it was 0 (0-24% control); in [6] (4 WAT, 56.0 kg/h), 1 (25-49% control); in assay [7] (2 WAT, 5.6 kg/h), 0 (0-24% control); in [7] (4 WAT, 11.2 kg/h), 1 (25-49% control). The “post-emergent herbicidal activity index” value in [7] (4 WAT, 56.0 kg/h) is on record as 0 (0-24% control); in [8] (2 WAT, 5.6 kg/h), 0 (0-24% control); in assay [8] (4 WAT, 11.2 kg/h), 0 (0-24% control); in [8] (4 WAT, 56.0 kg/h), 1 (25-49% control); in assay [9] (2 WAT, 5.6 kg/h), 0 (0-24% control); in assay [9] (4 WAT, 11.2 kg/h), 0 (0-24% control). For the same compound, the “post-emergent herbicidal activity index” value in assay [9] (4 WAT, 56.0 kg/h) is listed as 0 (0-24% control); in assay [10] (2 WAT, 5.6 kg/h), 0 (0-24% control); in assay [10] (4 WAT, 11.2 kg/h), 0 (0-24% control); in assay [10] (4 WAT, 56.0 kg/h), 0 (0-24% control); in assay [11] (2 WAT, 5.6 kg/h), 0 (0-24% control); in [11] (4 WAT, 11.2 kg/h), 0 (0-24% control). For the same compound, the “post-emergent herbicidal activity index” value in assay [11] (4 WAT, 56.0 kg/h) was 0 (0-24% control).

Regarding `C#CCNCP(=O)(OC(C)C#N)OC(C)C#N` (stereo not drawn) [Example 3, phosphonic acid, [(2-propnylamino)methyl]-,bis(1-cyanoethyl)ester], the “post-emergent herbicidal activity index” value was 0 (0-24% control) in [1] (2 WAT, 11.2 kg/h); 0 (0-24% control) in [2] (2 WAT, 11.2 kg/h); 0 (0-24% control) in assay [3] (2 WAT, 11.2 kg/h); 0 (0-24% control) in assay [4] (2 WAT, 11.2 kg/h); 0 (0-24% control) in assay [5] (2 WAT, 11.2 kg/h); 0 (0-24% control) in assay [6] (2 WAT, 11.2 kg/h). For the same compound, the “post-emergent herbicidal activity index” value in assay [7] (2 WAT, 11.2 kg/h) is on record as 2 (50-74% control); in [8] (2 WAT, 11.2 kg/h) it was 1 (25-49% control); in [9] (2 WAT, 11.2 kg/h), 0 (0-24% control); in assay [10] (2 WAT, 11.2 kg/h), 0 (0-24% control); in assay [11] (2 WAT, 11.2 kg/h), 0 (0-24% control).

As for `CC(C#N)OP(=O)(CNC(C)(C)C)OC(C)C#N` (stereo not drawn) [Example 4, phosphonic acid, [[(1,1-dimethylethyl)amino]methyl]-,bis(1-cyanoethyl) ester], the “post-emergent herbicidal activity index” value in assay [1] (2 WAT, 11.2 kg/h) is listed as 0 (0-24% control); in [2] (2 WAT, 11.2 kg/h) it was 0 (0-24% control); in [3] (2 WAT, 11.2 kg/h) it was 0 (0-24% control); in [4] (2 WAT, 11.2 kg/h), 0 (0-24% control); in assay [5] (2 WAT, 11.2 kg/h), 0 (0-24% control); in assay [6] (2 WAT, 11.2 kg/h), 1 (25-49% control). Moreover, the “post-emergent herbicidal activity index” value was 1 (25-49% control) in assay [7] (2 WAT, 11.2 kg/h); 1 (25-49% control) in assay [8] (2 WAT, 11.2 kg/h); 0 (0-24% control) in [9] (2 WAT, 11.2 kg/h); 0 (0-24% control) in assay [10] (2 WAT, 11.2 kg/h); 0 (0-24% control) in assay [11] (2 WAT, 11.2 kg/h).

`N#CCCOP(=O)(CNCC#N)OCCC#N` [Example 11, phosphonic acid, [[(cyanomethyl)amino]-methyl],bis 2-(cyanoethyl)ester]: the “post-emergent herbicidal activity index” value in assay [1] (2 WAT, 5.6 kg/h) is on record as 0 (0-24% control); in [1] (4 WAT, 11.2 kg/h) it was 2 (50-74% control); in assay [2] (2 WAT, 5.6 kg/h) it was 0 (0-24% control); in [2] (4 WAT, 11.2 kg/h), 1 (25-49% control); in assay [3] (2 WAT, 5.6 kg/h) it was 0 (0-24% control); in assay [3] (4 WAT, 11.2 kg/h), 2 (50-74% control). Further, the “post-emergent herbicidal activity index” value in assay [4] (2 WAT, 5.6 kg/h) is 0 (0-24% control); in assay [4] (4 WAT, 11.2 kg/h), 0 (0-24% control); in [5] (2 WAT, 5.6 kg/h) it was 0 (0-24% control); in assay [5] (4 WAT, 11.2 kg/h), 1 (25-49% control); in [6] (2 WAT, 5.6 kg/h), 1 (25-49% control); in [6] (4 WAT, 11.2 kg/h) it was 1 (25-49% control). Moreover, the “post-emergent herbicidal activity index” value is 0 (0-24% control) in assay [7] (2 WAT, 5.6 kg/h); 1 (25-49% control) in assay [7] (4 WAT, 11.2 kg/h); 0 (0-24% control) in [8] (2 WAT, 5.6 kg/h); 1 (25-49% control) in assay [8] (4 WAT, 11.2 kg/h); 0 (0-24% control) in assay [9] (2 WAT, 5.6 kg/h); 1 (25-49% control) in [9] (4 WAT, 11.2 kg/h). In addition, the “post-emergent herbicidal activity index” value in assay [10] (2 WAT, 5.6 kg/h) is on record as 0 (0-24% control); in assay [10] (4 WAT, 11.2 kg/h) it was 0 (0-24% control); in assay [11] (2 WAT, 5.6 kg/h) it was 0 (0-24% control); in [11] (4 WAT, 11.2 kg/h), 0 (0-24% control).
